This passage reports MIC amoxycillin, MIC and MIC (antibacterial activity) results from patent US4584291A, “9-deoxy-9-tetrazolyl-derivatives of clavulanic acid, their preparation and their use” (Beecham Group p.l.c., priority 1980, dated 1986).

Values after ≈ are worked out from the molar mass of the structure shown. A value given as a limit tells only on which side of the number the result lay.

The test system of assay [1] is St. Aureus Russell. In words: standard MIC test, synergy of tetrazolyl derivatives with amoxycillin. The assay is classed as cell-based, Staphylococcus aureus.
For assay [2], the system named is K. aerogenes E70. Described as above. The format is cell-based, Klebsiella aerogenes.
The next assay relates to E. coli JT39. The assay is described as above. The format is cell-based, Escherichia coli. The source says:
In a standard MIC test the following data were obtained for the synergistic activity of tetrazolyl derivatives with amoxycillin.

In assay [3] the test system is St. Aureus Russell. In words: standard MIC test, antibacterial activity of compound alone. The assay is classed as cell-based, Staphylococcus aureus. The following applies: for MIC: Staphylococcus aureus. The source says: (§1) In a standard MIC test the following antibacterial activities were obtained.
Assay [4] concerns K. aerogenes E70. The description is as above. The format is cell-based, Klebsiella aerogenes. The following applies: for MIC: Klebsiella aerogenes.
From the text: as §1

For the next assay, the system named is E.coli JT39. The description is as above. The format is cell-based, Escherichia coli. The settings on record: for MIC: Escherichia coli.
From the text: as §1

[5] abbreviates: amoxycillin plus compound at 1.0 μg/ml.
Where [6] appears, read: amoxycillin plus compound at 5.0 μg/ml.

Take `CC1(C)S[C@@H]2[C@H](NC(=O)[C@H](N)c3ccc(O)cc3)C(=O)N2[C@H]1C(=O)O` [amoxycillin, reference compound]: the MIC amoxycillin in the assay on St. Aureus Russell [1] (amoxycillin alone) came out at 500 µg/mL; in the assay with K. aerogenes E70 [2] (amoxycillin alone) it was 1000 µg/mL; in the assay on E. coli JT39 (amoxycillin alone) it was 2000 µg/mL.
By MIC is commonly meant the smallest concentration in the dilution series that meets the test's criterion for growth inhibition. Low readings indicate inhibition by little substance, high ones a need for much substance. In the case of `O=C(O)C1C(=CCn2cnnn2)OC2CC(=O)N21` (centres unmarked) [Example 18, Lithium 9-(tetrazol-1-yl)deoxyclavulanate], the MIC with St. Aureus Russell [3] worked out at 16 µg/mL (≈ 63.7 µM); in the assay with K. aerogenes E70 [4] it was 62.5 µg/mL (≈ 249 µM); in the assay with E.coli JT39, 16 µg/mL (≈ 63.7 µM).
Regarding `CCOC(=O)c1nnnn1CC=C1OC2CC(=O)N2C1C(=O)O` (centres unmarked) [Example 14, Lithium 9-(5-ethoxycarbonyltetrazol-1-yl)deoxyclavulanate], the MIC against St. Aureus Russell [3] is 8 µg/mL (≈ 24.7 µM); in the assay with K. aerogenes E70 [4], 31.2 µg/mL (≈ 96.5 µM); in the assay with E.coli JT39 it was 8 µg/mL (≈ 24.7 µM).
On to `O=C(O)C1C(=CCn2ncnn2)OC2CC(=O)N21` (centres unmarked) [Example 7, Lithium 9-tetrazol-2-yldoexyclavulanate], for which the minimal inhibitory concentration (MIC) in the assay with St. Aureus Russell [3], against K. aerogenes E70 [4] and against E.coli JT39 was 16 µg/mL (≈ 63.7 µM) throughout.
As for `Nc1nnnn1CC=C1OC2CC(=O)N2C1C(=O)[O-].[Li+]` (centres unmarked) [Example 10, Lithium 9-(5-aminotetrazolyl)deoxyclavulanate], the MIC amoxycillin amounted to 0.3 µg/mL with St. Aureus Russell [1] (setting [5]); 0.04 µg/mL in the assay on St. Aureus Russell [1] (setting [6]); 3.1 µg/mL in the assay on K. aerogenes E70 [2] (setting [5]); 0.4 µg/mL in the assay on K. aerogenes E70 [2] (setting [6]); 4.0 µg/mL in the assay with E. coli JT39 (setting [5]). The results for the MIC (antibacterial activity) against St. Aureus Russell [3], against K. aerogenes E70 [4] and in the assay with E.coli JT39 were 8 µg/mL, 31.2 µg/mL and 8 µg/mL, respectively.
As for `O=C(O)C1C(=CCn2nnnc2-c2ccccc2)OC2CC(=O)N21` (centres unmarked) [Example 27, Potassium 9-(5'-phenyltetrazol-1'-yl)-9-deoxyclavulanate], the MIC against St. Aureus Russell [3] was 4 µg/mL; in the assay on K. aerogenes E70 [4] it was over 500 µg/mL; with E.coli JT39 it was 125 µg/mL.
Turning to `O=CNc1nnnn1CC=C1OC2CC(=O)N2C1C(=O)[O-].[Li+]` (centres unmarked) [Example 35, Lithium 9-(5-formamidotetrazolyl)deoxyclavulanate], the MIC amoxycillin in the assay on St. Aureus Russell [1] (setting [5]) was 0.6 µg/mL; with St. Aureus Russell [1] (setting [6]), 0.16 µg/mL; in the assay on K. aerogenes E70 [2] (setting [5]) it was 6.2 µg/mL; in the assay with K. aerogenes E70 [2] (setting [6]), 1.6 µg/mL; with E. coli JT39 (setting [5]), 8.0 µg/mL; in the assay on E. coli JT39 (setting [6]), 4.0 µg/mL. For the same molecule, the results for the MIC (antibacterial activity) against St. Aureus Russell [3], in the assay with K. aerogenes E70 [4] and with E.coli JT39 were 16 µg/mL, 62.5 µg/mL and 31.2 µg/mL, respectively.
Turning to `O=C(O)c1nnnn1CC=C1OC2CC(=O)N2C1C(=O)O` (centres unmarked) [Example 15, Disodium 9-(5-carboxylatotetrazol-1-yl)deoxyclavulanate], the values for the MIC against St. Aureus Russell [3], in the assay on K. aerogenes E70 [4] and in the assay on E.coli JT39 were 16 µg/mL, 31.2 µg/mL and 16 µg/mL, respectively.
For the molecule `Cc1nnnn1CC=C1OC2CC(=O)N2C1C(=O)O` (centres unmarked) [Example 25, Potassium 9-(5'-methyltetrazol-1'-yl)-9-deoxyclavulanate], the MIC came to 16 µg/mL against St. Aureus Russell [3], 62.5 µg/mL in the assay on K. aerogenes E70 [4] and 8 µg/mL against E.coli JT39.
For the molecule “Sodium 9-(5-acetamidotetrazolyl)deoxyclavulanate [Example 12]”, the MIC amoxycillin in the assay on St. Aureus Russell [1] (setting [5]) is 0.3 µg/mL; in the assay on St. Aureus Russell [1] (setting [6]) it was 0.08 µg/mL; in the assay on K. aerogenes E70 [2] (setting [5]) it was 3.1 µg/mL; with K. aerogenes E70 [2] (setting [6]) it was 1.5 µg/mL; with E. coli JT39 (setting [5]) it was 4.0 µg/mL; in the assay on E. coli JT39 (setting [6]) it was at most 0.5 µg/mL. Further, the MIC (antibacterial activity) stood at 16 µg/mL in the assay with St. Aureus Russell [3], 31.2 µg/mL with K. aerogenes E70 [4] and 16 µg/mL against E.coli JT39.
